According to ChEMBL document CHEMBL1201861, “Genomics of Drug Sensitity in Cancer screening data, Wellcome Trust Sanger Institute”:
pIC50: −log10 of the molar value.

How the values were obtained:
Test in all cases: cells
Settings in all cases: Homo sapiens
[1] = tested on: HT1197; type: functional, cell-based, HT-1197
Description: SANGER: Inhibition of human HT-1197 cell growth in a cell viability assay.

[2] = tested on: SW1463; type: functional, cell-based;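 also: growth inhibition of SW1463 cells, determined with a cell viability assay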
Description: SANGER: Inhibition of human SW1463 cell growth in a cell viability assay.

[3] = tested on: MEL-JUSO; type: functional, cell-based;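 also: growth inhibition of human MEL-JUSO cells, read out with a cell viability assay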
Description: SANGER: Inhibition of human MEL-JUSO cell growth in a cell viability assay.

[4] = tested on: AGS; type: functional, cell-based;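 also: growth inhibition of AGS cells, determined with a cell viability assay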
Description: SANGER: Inhibition of human AGS cell growth in a cell viability assay.

[5] = tested on: C3A; type: functional, cell-based;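 also: growth inhibition of C3A human cells, quantified with a cell viability readout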
Description: SANGER: Inhibition of human C3A cell growth in a cell viability assay.

[6] = tested on: KU-19-19; type: functional, cell-based
Description: SANGER: Inhibition of human KU-19-19 cell growth in a cell viability assay.

[7] = tested on: NCI-H1703; type: functional, cell-based;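 also: growth inhibition of NCI-H1703 cells, read out via a cell viability assay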
Description: SANGER: Inhibition of human NCI-H1703 cell growth in a cell viability assay.

[8] = tested on: CAL-62; type: functional, cell-based;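 also: growth inhibition of CAL-62 cells, read out with a cell viability assay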
Description: SANGER: Inhibition of human CAL-62 cell growth in a cell viability assay.

[9] = tested on: PC-14; type: functional, cell-based;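 also: cell viability assay measuring inhibition of PC-14 cell growth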
Description: SANGER: Inhibition of human PC-14 cell growth in a cell viability assay.

[10] = tested on: SNU-387; type: functional, cell-based
Description: SANGER: Inhibition of human SNU-387 cell growth in a cell viability assay.

[11] = tested on: NCI-H2347; type: functional, cell-based;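 also: growth inhibition of the cell line, read out with a cell viability assay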
Description: SANGER: Inhibition of human NCI-H2347 cell growth in a cell viability assay.

[12] = tested on: MOLT-13; type: functional, cell-based;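 also: IC50 for suppression of MOLT-13 cell growth, read out with a cell viability assay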
Description: SANGER: Inhibition of human MOLT-13 cell growth in a cell viability assay.

[13] = tested on: HuP-T4; type: functional, cell-based;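 also: cell viability assay measuring how much HuP-T4 cell growth is inhibited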
Description: SANGER: Inhibition of human HuP-T4 cell growth in a cell viability assay.

[14] = tested on: HLE; type: functional, cell-based;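 also: growth inhibition of human HLE cells, read out by a cell viability assay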
Description: SANGER: Inhibition of human HLE cell growth in a cell viability assay.

[15] = tested on: PANC-03-27; type: functional, cell-based
Description: SANGER: Inhibition of human PANC-03-27 cell growth in a cell viability assay.

[16] = tested on: NB14; type: functional, cell-based;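 also: growth inhibition of NB14 cells measured with a cell viability assay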
Description: SANGER: Inhibition of human NB14 cell growth in a cell viability assay.

[17] = tested on: KYSE-180; type: functional, cell-based;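 also: growth inhibition of KYSE-180 cells, read out with a cell viability assay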
Description: SANGER: Inhibition of human KYSE-180 cell growth in a cell viability assay.

[18] = tested on: PANC-08-13; type: functional, cell-based;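 also: cell growth inhibition, measured with a cell viability assay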
Description: SANGER: Inhibition of human PANC-08-13 cell growth in a cell viability assay.

[19] = tested on: BFTC-909; type: functional, cell-based
Description: SANGER: Inhibition of human BFTC-909 cell growth in a cell viability assay.

[20] = tested on: SNU-423; type: functional, cell-based
Description: SANGER: Inhibition of human SNU-423 cell growth in a cell viability assay.

[21] = tested on: YH-13; type: functional, cell-based;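 also: cell viability readout of growth suppression in the human YH-13 cell line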
Description: SANGER: Inhibition of human YH-13 cell growth in a cell viability assay.

[22] = tested on: KYSE-150 cell line; type: functional, cell-based;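 also: growth inhibition of human KYSE-150 cells, read out with a cell viability assay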
Description: SANGER: Inhibition of human KYSE-150 cell growth in a cell viability assay.

[23] = tested on: A 172; type: functional, cell-based;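 also: growth inhibition of A172 cells, measured with a cell viability readout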
Description: SANGER: Inhibition of human A172 cell growth in a cell viability assay.

[24] = tested on: RERF-LC-MS; type: functional, cell-based;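 also: growth inhibition of human RERF-LC-MS cells, read out by a cell viability assay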
Description: SANGER: Inhibition of human RERF-LC-MS cell growth in a cell viability assay.

[25] = tested on: HPAF-II; type: functional, cell-based;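 also: growth inhibition of HPAF-II cells, read out with a cell viability assay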
Description: SANGER: Inhibition of human HPAF-II cell growth in a cell viability assay.

[26] = tested on: T47D; type: functional, cell-based;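 also: growth inhibition of human T47D cells, measured with a cell viability assay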
Description: SANGER: Inhibition of human T47D cell growth in a cell viability assay.

[27] = tested on: ChaGo-K-1; type: functional, cell-based;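 also: growth inhibition of ChaGo-K-1 cells, read out with a cell viability assay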
Description: SANGER: Inhibition of human ChaGo-K-1 cell growth in a cell viability assay.

[28] = tested on: ME-180; type: functional, cell-based;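 also: cell viability assay measuring growth inhibition of ME-180 cells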
Description: SANGER: Inhibition of human ME-180 cell growth in a cell viability assay.

[29] = tested on: 647-V; type: functional, cell-based;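 also: growth inhibition of 647-V cells, read out with a cell viability assay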
Description: SANGER: Inhibition of human 647-V cell growth in a cell viability assay.

[30] = tested on: KYSE-270; type: functional, cell-based;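 also: cell growth inhibition measured with a viability assay in the human KYSE-270 line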
Description: SANGER: Inhibition of human KYSE-270 cell growth in a cell viability assay.

[31] = tested on: CAL-51; type: functional, cell-based;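 also: human CAL-51 cell line, growth inhibition read out via a cell viability assay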
Description: SANGER: Inhibition of human CAL-51 cell growth in a cell viability assay.

[32] = tested on: EGI-1; type: functional, cell-based;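 also: cell viability readout used to gauge growth inhibition of EGI-1 cells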
Description: SANGER: Inhibition of human EGI-1 cell growth in a cell viability assay.

[33] = tested on: RMG-I; type: functional, cell-based;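 also: growth inhibition of human RMG-I cells, read out with a cell viability assay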
Description: SANGER: Inhibition of human RMG-I cell growth in a cell viability assay.

[34] = tested on: NCI-H1048; type: functional, cell-based;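 also: growth inhibition of human NCI-H1048 cells, read out with a cell viability assay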
Description: SANGER: Inhibition of human NCI-H1048 cell growth in a cell viability assay.

[35] = tested on: TYK-nu; type: functional, cell-based;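 also: growth inhibition of human TYK-nu cells, read out by a cell viability assay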
Description: SANGER: Inhibition of human TYK-nu cell growth in a cell viability assay.

[36] = tested on: HCT-116; type: functional, cell-based
Description: SANGER: Inhibition of human HCT-116 cell growth in a cell viability assay.

[37] = tested on: MEL-HO; type: functional, cell-based
Description: SANGER: Inhibition of human MEL-HO cell growth in a cell viability assay.

[38] = tested on: SW48; type: functional, cell-based;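 also: growth inhibition of SW48 cells, read out with a cell viability assay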
Description: SANGER: Inhibition of human SW48 cell growth in a cell viability assay.

[39] = tested on: COR-L23; type: functional, cell-based;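 also: cell viability assay measuring how strongly compounds suppress growth of COR-L23 cells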
Description: SANGER: Inhibition of human COR-L23 cell growth in a cell viability assay.

[40] = tested on: EW-22; type: functional, cell-based;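 also: growth inhibition of the EW-22 cell line, measured with a cell viability readout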
Description: SANGER: Inhibition of human EW-22 cell growth in a cell viability assay.

[41] = tested on: SW780; type: functional, cell-based;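 also: growth inhibition of the cells, read out with a cell viability assay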
Description: SANGER: Inhibition of human SW780 cell growth in a cell viability assay.

[42] = tested on: NCI-H2228; type: functional, cell-based;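 also: growth inhibition of human NCI-H2228 cells, read out by a cell viability assay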
Description: SANGER: Inhibition of human NCI-H2228 cell growth in a cell viability assay.

[43] = tested on: D-542MG; type: functional, cell-based
Description: SANGER: Inhibition of human D-542MG cell growth in a cell viability assay.

SMILES: Cn1cc(/C=C2\C(=O)Nc3cccnc32)c2ccccc21
- pIC50 [1]: < 5.70
- pIC50 [2]: < 5.70
- pIC50 [3]: < 5.70
- pIC50 [4]: < 5.70
- pIC50 [5]: < 5.70
- pIC50 [6]: < 5.70
- pIC50 [7]: 6.52
- pIC50 [8]: < 5.70
- pIC50 [9]: < 5.70
- pIC50 [10]: < 5.70
- pIC50 [11]: < 5.70
- pIC50 [12]: < 5.70
- pIC50 [13]: < 5.70
- pIC50 [14]: < 5.70
- pIC50 [15]: < 5.70
- pIC50 [16]: < 5.70
- pIC50 [17]: < 5.70
- pIC50 [18]: < 5.70
- pIC50 [19]: < 5.70
- pIC50 [20]: < 5.70
- pIC50 [21]: < 5.70
- pIC50 [22]: < 5.70
- pIC50 [23]: < 5.70
- pIC50 [24]: < 5.70
- pIC50 [25]: < 5.70
- pIC50 [26]: < 5.70
- pIC50 [27]: < 5.70
- pIC50 [28]: < 5.70
- pIC50 [29]: < 5.70
- pIC50 [30]: < 5.70
- pIC50 [31]: < 5.70
- pIC50 [32]: < 5.70
- pIC50 [33]: < 5.70
- pIC50 [34]: < 5.70
- pIC50 [35]: < 5.70
- pIC50 [36]: < 5.70
- pIC50 [37]: < 5.70
- pIC50 [38]: < 5.70
- pIC50 [39]: < 5.70
- pIC50 [40]: < 5.70
- pIC50 [41]: < 5.70
- pIC50 [42]: < 5.70
- pIC50 [43]: < 5.70

SMILES: COc1cc(Nc2c(C#N)cnc3cc(OCCCN4CCN(C)CC4)c(OC)cc23)c(Cl)cc1Cl [BOSUTINIB]
- pIC50 [1]: < 5.70
- pIC50 [2]: < 5.70
- pIC50 [3]: < 5.70
- pIC50 [4]: < 5.70
- pIC50 [5]: < 5.70
- pIC50 [6]: < 5.70
- pIC50 [7]: < 5.70
- pIC50 [8]: < 5.70
- pIC50 [9]: 5.89
- pIC50 [10]: < 5.70
- pIC50 [11]: < 5.70
- pIC50 [12]: < 5.70
- pIC50 [13]: < 5.70
- pIC50 [14]: < 5.70
- pIC50 [15]: < 5.70
- pIC50 [16]: < 5.70
- pIC50 [17]: < 5.70
- pIC50 [18]: < 5.70
- pIC50 [19]: < 5.70
- pIC50 [20]: < 5.70
- pIC50 [21]: < 5.70
- pIC50 [22]: < 5.70
- pIC50 [23]: < 5.70
- pIC50 [24]: < 5.70
- pIC50 [25]: < 5.70
- pIC50 [26]: < 5.70
- pIC50 [27]: < 5.70
- pIC50 [28]: < 5.70
- pIC50 [29]: < 5.70
- pIC50 [30]: < 5.70
- pIC50 [31]: < 5.70
- pIC50 [32]: < 5.70
- pIC50 [33]: < 5.70
- pIC50 [34]: < 5.70
- pIC50 [35]: < 5.70
- pIC50 [36]: < 5.70
- pIC50 [37]: < 5.70
- pIC50 [38]: < 5.70
- pIC50 [39]: < 5.70
- pIC50 [40]: < 5.70
- pIC50 [41]: < 5.70
- pIC50 [42]: < 5.70
- pIC50 [43]: < 5.70

SMILES: CC[C@@]1(O)C(=O)OCc2c1cc1n(c2=O)Cc2cc3ccccc3nc2-1 [CAMPTOTHECIN]
- pIC50 [1]: < 7.00
- pIC50 [2]: 7.29
- pIC50 [3]: 7.45
- pIC50 [4]: 7.79
- pIC50 [5]: 7.25
- pIC50 [6]: 7.66
- pIC50 [7]: 8.19
- pIC50 [8]: 9.01
- pIC50 [9]: 7.87
- pIC50 [12]: 8.75
- pIC50 [13]: 9.05
- pIC50 [14]: 8.24
- pIC50 [15]: 8.15
- pIC50 [16]: 9.04
- pIC50 [17]: 7.88
- pIC50 [18]: 7.35
- pIC50 [19]: 8.16
- pIC50 [21]: 7.93
- pIC50 [23]: 7.89
- pIC50 [24]: 7.64
- pIC50 [25]: 7.26
- pIC50 [26]: 7.87
- pIC50 [28]: 8.57
- pIC50 [29]: 9.05
- pIC50 [30]: 8.28
- pIC50 [31]: 7.53
- pIC50 [32]: 7.60
- pIC50 [34]: 9.28
- pIC50 [35]: 8.31
- pIC50 [36]: 8.30
- pIC50 [37]: 8.12
- pIC50 [38]: 8.52
- pIC50 [39]: 8.16
- pIC50 [40]: 9.25
- pIC50 [41]: 7.59
- pIC50 [42]: 7.31
